Data from patent US20210000966A1, “HSP90-TARGETING CONJUGATES AND FORMULATIONS THEREOF” (TARVEDA THERAPEUTICS, INC., priority 2017, published 2021).
Read-outs that look alike come from different tables or passages of the source. Values belong to the molecule of their own block, whether it stands above or below them.

Columns and labels:
human total EbB2/Her2 = experiment: HER2 degradation assay (ELISA) in BT474 cells; assay type: cell-based; settings: BT-474, 16 hrs, read-out: Her2 Degradation IC50 Abs IC50
Experimental: BT474 (breast cancer) cells were plated at 12,000 cells per well and incubated for 20-24 hrs at 37° C. at 5% CO2. Post cell incubation, compounds were reconstituted in DMSO to a stock concentration of 5 mM. A compound plate was then prepared containing a 10 point dilution in DMSO. 2 uL of these dilutions were then added to the cells for a final working concentration of 5 uM to 0.0003 uM. Compounds and cells were incubated for 16 hrs. Media was then removed, cells washed, lysed, and analyzed for human total EbB2/Her2 levels by ELISA.

HSP90α = molecular target: T1, HSP90α (Homo sapiens, UniProt P07900); experiment: HSP90 binding, HSP90α Assay Kit (fluorescence polarization, labeled geldanamycin competition)
T1 construct: purchased
Experimental: The bindings of the conjugates to HSP90 were studied with the HSP90α Assay Kit. The HSP90α Assay Kit is designed for identification of HSP90α inhibitors using fluorescence polarization. The assay is based on the competition of fluorescently labeled geldanamycin for binding to purified recombinant HSP90α. The key to the HSP90α Assay Kit is the fluorescently labeled geldanamycin. The fluorescently labeled geldanamycin is incubated with a sample containing HSP90α enzyme to produce a change in fluorescent polarization that can then be measured using a fluorescence reader.

NCI-H460 cells = experiment: NCI-H460 tumor cell cytotoxicity assay (CellTiter-Glo); assay type: cell-based; settings: Homo sapiens, NCI-H460, 48 h
Experimental: NCI-H460 cells (non-small cell lung cancer) were plated at 500 cells per well and incubated for 20-24 hrs at 37° C. at 5% CO2. Post cell incubation, compounds were reconstituted in DMSO to a stock concentration of 200 uM. A compound plate was then prepared containing a 10 point dilution in RPMI+10% FBS+0.25% DMSO. 5 uL of the dilution was then added for a final working concentration range of 10 uM to 0.0005 uM. Compounds and cells were then incubated for 48 hrs. Cells were then analyzed by CellTiter-Glo for ATP levels and percent inhibition calculated.

ERK1/2 = ERK1/2 inhibiting activity (FIG. 8B); assay type: biochemical; settings: in words
Text: (§1) The activity of the respective payload is blocked until the linker moiety gets cleaved in the tumor and releases active unblocked payload. Through the HSP90 platform, toxicity is mitigated by masking the payload's active site until it can be delivered to the tumor.
(§2) FIG. 8A compares the activity of Conjugate 45 and its payload (talazoparib). FIG. 8B compares the activity of Conjugate 46 and its payload (ulixertinib). FIG. 8C compares the activity of Conjugate 47 and its payload TAK-733. The data further support that attaching a payload to a HSP90 binding ligand blocks the target activity of the payload. The HSP90 bindings of the HSP90 ligands are not affected.

PARP = PARP inhibiting activity (FIG. 8A); assay type: biochemical; settings: in words
Text: as §1, §2

[1] = system: LS174t colon tumor xenograft; experiment: LS174t colon tumor xenograft model, efficacy; assay type: in vivo, mice; settings: FIG. 3A, in words
topoisomerase-I = molecular target: T2, topoisomerase-I (Homo sapiens, UniProt P11387); experiment: DNA damage / topoisomerase activity (FIG. 9); assay type: biochemical; settings: FIG. 9, in words
T2 sequence (P11387 1-765): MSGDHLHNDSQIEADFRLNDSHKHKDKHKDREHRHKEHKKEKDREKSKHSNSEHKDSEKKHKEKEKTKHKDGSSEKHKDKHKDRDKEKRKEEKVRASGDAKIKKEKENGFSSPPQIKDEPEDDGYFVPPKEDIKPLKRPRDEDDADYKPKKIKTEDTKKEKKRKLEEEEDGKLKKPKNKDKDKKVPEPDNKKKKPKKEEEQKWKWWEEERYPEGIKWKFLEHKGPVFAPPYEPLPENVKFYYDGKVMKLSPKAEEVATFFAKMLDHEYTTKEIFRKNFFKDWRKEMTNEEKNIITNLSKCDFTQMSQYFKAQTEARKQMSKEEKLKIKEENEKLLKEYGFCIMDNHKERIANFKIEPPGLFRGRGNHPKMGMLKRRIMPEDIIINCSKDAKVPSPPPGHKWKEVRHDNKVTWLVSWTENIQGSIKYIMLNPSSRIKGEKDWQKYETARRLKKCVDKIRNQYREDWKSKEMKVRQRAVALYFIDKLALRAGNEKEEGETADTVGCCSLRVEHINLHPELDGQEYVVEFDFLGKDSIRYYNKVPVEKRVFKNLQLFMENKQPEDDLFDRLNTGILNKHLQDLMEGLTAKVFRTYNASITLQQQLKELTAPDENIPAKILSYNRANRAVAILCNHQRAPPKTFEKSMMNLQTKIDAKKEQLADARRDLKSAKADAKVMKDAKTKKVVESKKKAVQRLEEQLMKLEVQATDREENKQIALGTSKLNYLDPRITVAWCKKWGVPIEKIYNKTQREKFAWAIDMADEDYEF
Text: In one further study, DNA damage caused by Conjugate 48 (a conjugate comprising a ganetespib derivative and SN-38) was compared with the DNA damage caused by SN-38, the payload of Conjugate 48. SN-38 and its pre-drug, irinotecan (an analog of camptothecin), are inhibitors of topoisomerase-I and potently cause DNA damage that results in nicks in the DNA. […] The conjugation of SN-38 to the HSP90 ligand results in the masking of the activity of SN-38 until it can be selectively delivered to tumors where linker cleavage occurs.

[2] = assay type: in vivo, mice; settings: LS174t xenograft, in words
Experimental: Accumulation and retention of Conjugate 38 was tested in this tumor xenograft model.

[3] = Glucose levels post dosing in mice; assay type: in vivo; settings: FIG. 7, in words
Text: In an in vivo study in mice, glucose levels were monitored post PI3K inhibitor (Copanlisib) and Conjugate 38 dosing. […] Therefore, conjugating a PI3K enzyme inhibitor payload to a HSP90 targeting ligand reduced the normal tissue activity of glucose increase in mice.

[4] = n = 1, read-out: H460 in vitro cytotoxicity
[5] = n = 2, read-out: H460 in vitro cytotoxicity

Compound: CCNC(=O)c1nnc(-c2cc(C(C)C)c(O)cc2O)n1-c1ccc(C(=O)NCc2cc(C)c(OC(=O)N3CCN(CCCOc4ccc5c(c4OC)N=C(NC(=O)c4cnc(N)nc4)N4CCN=C54)CC3)c(C)c2)cc1 [Compound 34]
IC50 (human total EbB2/Her2): 141 nM
Kd (HSP90α; read-out: HSP90 Binding Kd): 1.37 nM

Kd (HSP90α; read-out: HSP90 KD): 1.2 nM
Compound: CCNC(=O)c1nnc(-c2cc(C(C)C)c(O)cc2O)n1-c1ccc(N(C)C2CCN(C(=O)CCC(=O)OC[C@H](O)Cn3cnc4c(c(Nc5ccc(I)cc5F)c(F)c(=O)n4C)c3=O)CC2)cc1 [Compound 47]

Compound: CCNC(=O)c1nnc(-c2cc(C(C)C)c(O)cc2O)n1-c1ccc(C(=O)NCCc2ccc(OC(=O)N(C)CCCOc3ccc4c(c3OC)N=C(NC(=O)c3cnc(N)nc3)N3CCN=C43)cc2)cc1 [Compound 44]
IC50 (NCI-H460 cells; [4]): 527 nM
IC50 (NCI-H460 cells; [5]): 325 nM

Compound: CCNC(=O)c1nnc(-c2cc(C(C)C)c(O)cc2O)n1-c1ccc(CN2CCC(C(=O)N3CCC(C(=O)OC[C@@H](NC(=O)c4cc(-c5cc(NC(C)C)ncc5Cl)c[nH]4)c4cccc(Cl)c4)CC3)CC2)c(F)c1 [Conjugate 46]
ERK1/2 inhibiting activity compared with payload (ulixertinib) (ERK1/2): lower than its payload

Compound: CC(C)c1cc(-c2nnc(O)n2-c2ccc(CN3CCN(CCC(C)(C)SS[C@H](C)COC(=O)N(CCN(C)C)Cn4nc5c6c(cc(F)cc6c4=O)N[C@H](c4ccc(F)cc4)[C@H]5c4ncnn4C)CC3)cc2)c(O)cc1O [Conjugate 45]
PARP inhibiting activity compared with payload (talazoparib) (PARP): lower than its payload

Compound: CCNC(=O)c1nnc(-c2cc(C(C)C)c(O)cc2O)n1-c1ccc(C(=O)N2CCN(Cc3ccc(OC(=O)N4CCN(CCCOc5ccc6c(c5OC)N=C(NC(=O)c5cnc(N)nc5)N5CCN=C65)CC4)c(C)c3)CC2)cc1 [Compound 33]
IC50 (human total EbB2/Her2): 41 nM
Kd (HSP90α; read-out: HSP90 Binding Kd): 1.03 nM

Kd (HSP90α; read-out: HSP90 KD): 0.33 nM
Compound: CC(C)c1cc(-c2nnc(O)n2-c2ccc(CN3CCN(CCC(C)(C)SS[C@H](C)COC(=O)N(CCN(C)C)Cn4nc5c6c(cc(F)cc6c4=O)N[C@H](c4ccc(F)cc4)[C@H]5c4ncnn4C)CC3)cc2)c(O)cc1O [Compound 45]

Compound: CC(C)c1cc(-c2nnc(O)n2-c2ccc3c(ccn3C)c2)c(O)cc1O [ganetespib, reference compound]
efficacy (tumor growth inhibition) in LS174t xenograft [1]: lack of efficacy
DNA damage (topoisomerase-I): none

Kd (HSP90α; read-out: HSP90 KD): 1 nM
Compound: CCNC(=O)c1nnc(-c2cc(C(C)C)c(O)cc2O)n1-c1ccc(CN2CCC(C(=O)N3CCC(C(=O)OC[C@@H](NC(=O)c4cc(-c5cc(NC(C)C)ncc5Cl)c[nH]4)c4cccc(Cl)c4)CC3)CC2)c(F)c1 [Compound 46]

Compound: CCNC(=O)c1nnc(-c2cc(C(C)C)c(O)cc2O)n1-c1ccc(CN2CCN(C(=O)Oc3ccc(OC(=O)N4CCN(CCCOc5ccc6c(c5OC)N=C(NC(=O)c5cnc(N)nc5)N5CCN=C65)CC4)cc3)CC2)cc1 [Compound 37]
IC50 (human total EbB2/Her2): 119 nM

Compound: CCNC(=O)c1nnc(-c2cc(C(C)C)c(O)cc2O)n1-c1ccc(CN2CCN(C(=O)Cc3ccc(CC(=O)N(C)CCCOc4ccc5c(c4OC)N=C(NC(=O)c4cnc(N)nc4)N4CCN=C54)cc3)CC2)cc1 [Compound 43]
IC50 (NCI-H460 cells; [4]): 42 nM
IC50 (NCI-H460 cells; [5]): 31 nM

Compound: CCc1c2c(nc3ccc(OC(=O)N4CCC(CCn5ccc6cc(-n7c(O)nnc7-c7cc(C(C)C)c(O)cc7O)ccc65)CC4)cc13)-c1cc3c(c(=O)n1C2)COC(=O)[C@]3(O)CC [Conjugate 48]
DNA damage (topoisomerase-I): negligible levels of DNA damage up to 100 uM

Compound: COc1c(OCCCN2CCN(C(=O)Oc3ccc(CC(=O)N4CCC(CCn5ccc6cc(-n7c(O)nnc7-c7cc(C(C)C)c(O)cc7O)ccc65)CC4)cc3)CC2)ccc2c1N=C(NC(=O)c1cnc(N)nc1)N1CCN=C21 [Compound 40]
IC50 (NCI-H460 cells; [4]): 247 nM
IC50 (NCI-H460 cells; [5]): 56 nM

Compound: COc1c(OCCCN2CCN(C(=O)Oc3ccc(CC(=O)N4CCN(Cc5ccc(-n6c(O)nnc6-c6cc(C(C)C)c(O)cc6O)cc5)CC4)cc3)CC2)ccc2c1N=C(NC(=O)c1cnc(N)nc1)N1CCN=C21 [Compound 39]
IC50 (human total EbB2/Her2): > 20000 nM
Kd (HSP90α; read-out: HSP90 Binding Kd): 1.8 nM

Compound: CCNC(=O)c1nnc(-c2cc(C(C)C)c(O)cc2O)n1-c1ccc(C(=O)N2CCN(c3ccc(OC(=O)N4CCN(CCCOc5ccc6c(c5OC)N=C(NC(=O)c5cnc(N)nc5)N5CCN=C65)CC4)cc3)CC2)cc1 [Compound 29]
IC50 (human total EbB2/Her2): 59 nM
Kd (HSP90α; read-out: HSP90 Binding Kd): 1.03 nM

tumor retention time [2]: much shorter tumor retention time
glucose concentration after dosing [3]: increase in glucose levels
Compound: COc1c(OCCCN2CCOCC2)ccc2c1N=C(NC(=O)c1cnc(N)nc1)N1CCN=C21 [Copanlisib, reference compound]
efficacy (tumor growth inhibition) in LS174t xenograft [1]: lack of efficacy

Compound: CCc1c2c(nc3ccc(O)cc13)-c1cc3c(c(=O)n1C2)COC(=O)[C@]3(O)CC [SN-38]
DNA damage (topoisomerase-I): DNA damage even at 1 uM

IC50 (human total EbB2/Her2): 72 nM
Compound: CCNC(=O)c1nnc(-c2cc(C(C)C)c(O)cc2O)n1-c1ccc(CN2CCN(C(=O)N3CCN(CCCOc4ccc5c(c4OC)N=C(NC(=O)c4cnc(N)nc4)N4CCN=C54)CC3)CC2)cc1 [Compound 36]

Compound: CCNC(=O)c1nnc(-c2cc(C(C)C)c(O)cc2O)n1-c1ccc(CN2CCC(C(=O)N3CCN(c4ccc(OC(=O)N5CCN(CCCOc6ccc7c(c6OC)N=C(NC(=O)c6cnc(N)nc6)N6CCN=C76)CC5)cc4)CC3)CC2)cc1 [Compound 31]
IC50 (human total EbB2/Her2): 103 nM
Kd (HSP90α; read-out: HSP90 Binding Kd): 1.38 nM

Compound: CCNC(=O)c1nnc(-c2cc(C(C)C)c(O)cc2O)n1-c1ccc(CN2CCN(C(=O)c3ccc(OC(=O)N4CCN(CCCOc5ccc6c(c5OC)N=C(NC(=O)c5cnc(N)nc5)N5CCN=C65)CC4)cc3)CC2)cc1 [Compound 30]
IC50 (human total EbB2/Her2): 38 nM
Kd (HSP90α; read-out: HSP90 Binding Kd): 0.68 nM

Compound: CCc1c2c(nc3ccc(OC(=O)N4CCC(N5CCCCC5)CC4)cc13)-c1cc3c(c(=O)n1C2)COC(=O)[C@]3(O)CC [irinotecan]
DNA damage (topoisomerase-I): moderate level of DNA damaging activity

Compound: CCNC(=O)c1nnc(-c2cc(C(C)C)c(O)cc2O)n1-c1ccc(C(=O)NCCc2ccc(OC(=O)N(CCCOc3ccc4c(c3OC)N=C(NC(=O)c3cnc(N)nc3)N3CCN=C43)C(C)C)cc2)cc1 [Compound 42]
IC50 (NCI-H460 cells; [4]): 135 nM
IC50 (NCI-H460 cells; [5]): 147 nM

Compound: CCNC(=O)c1nnc(-c2cc(C(C)C)c(O)cc2O)n1-c1ccc(C(=O)N2CCN(Cc3ccc(OC(=O)N4CCN(CCCOc5ccc6c(c5OC)N=C(NC(=O)c5cnc(N)nc5)N5CCN=C65)CC4)cc3)CC2)cc1 [Compound 32]
IC50 (human total EbB2/Her2): 49 nM
Kd (HSP90α; read-out: HSP90 Binding Kd): 0.86 nM
